Results on four molecules are retold here after patent publication US8008355B2, “Endosomolytic poly(vinyl ether) polymers” (Roche Madison Inc., priority 2002, dated 2011).

The conditions of data set [1]: amines with electron withdrawing groups; cited from earlier work.
Data set [2] can be described thus: Rate of cleavage of linkages. It counts as physicochemical.

Take `CCN(CCC#N)CCC#N` [C2H5N(CH2CH2CN)2]: in data set [1], the pKa is on record as 4.55.
As for `CCN(CC)CCC#N` [(C2H5)2N(CH2)2CN], the pKa in data set [1] was 7.65.
For the molecule `CC1CCC(=N)S1` (stereo not shown) [Linkage X, 5-methyl-2-iminothiolane], the “rate of cleavage, slower than an SMTP linkage (Compound XI)” value in data set [2] is given as 4 ×.
Regarding `N#CCN` [Polymer H2NCH2CN, H2NCH2CN], in data set [1], the pKa is on record as 5.34.
